Several values for one entry are separate records, joined by “and”; a condition that tells them apart may be missing. Equal values may be shown once.
Tested on: 598228-144-R-J1-PDC complex spheroids, viability
Test: Anticancer human tumor 598228-144-R-J1-PDC patient-derived serous endometrial adenocarcinoma cell line growth inhibition [CLK]
Conditions: for viability, T/C: stronger effect = lower value
Procedure, shortened: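 Patient-derived tumor cells grown as complex spheroids with HUVEC endothelial cells and mesenchymal stem cells, treated with drug combinations. Concentrations descend in half-log steps from near clinical Cmax, or from 10 microM if Cmax unknown.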

[1] = curve of first compound, second compound 0.0316 µM
[2] = curve of first compound, second compound 0.1 µM
[3] = curve of first compound, second compound 0.316 µM
[4] = curve of first compound, second compound 1 µM
[5] = curve of first compound, second compound 3.16 µM
[6] = curve of first compound, second compound 10 µM
[7] = second compound 0.0316 µM, first compound 0.0316 µM
[8] = second compound 0.0316 µM, first compound 0.1 µM
[9] = second compound 0.0316 µM, first compound 0.316 µM
[10] = second compound 0.0316 µM, first compound 1 µM
[11] = second compound 0.0316 µM, first compound 3.16 µM
[12] = second compound 0.0316 µM, first compound 10 µM
[13] = second compound 0.1 µM, first compound 0.0316 µM
[14] = second compound 0.1 µM, first compound 0.1 µM
[15] = second compound 0.1 µM, first compound 0.316 µM
[16] = second compound 0.1 µM, first compound 1 µM
[17] = second compound 0.1 µM, first compound 3.16 µM
[18] = second compound 0.1 µM, first compound 10 µM
[19] = second compound 0.316 µM, first compound 0.0316 µM
[20] = second compound 0.316 µM, first compound 0.1 µM
[21] = second compound 0.316 µM, first compound 0.316 µM
[22] = second compound 0.316 µM, first compound 1 µM
[23] = second compound 0.316 µM, first compound 3.16 µM
[24] = second compound 0.316 µM, first compound 10 µM
[25] = second compound 1 µM, first compound 0.0316 µM
[26] = second compound 1 µM, first compound 0.1 µM
[27] = second compound 1 µM, first compound 0.316 µM
[28] = second compound 1 µM, first compound 1 µM
[29] = second compound 1 µM, first compound 3.16 µM
[30] = second compound 1 µM, first compound 10 µM
[31] = second compound 3.16 µM, first compound 0.0316 µM
[32] = second compound 3.16 µM, first compound 0.1 µM
[33] = second compound 3.16 µM, first compound 0.316 µM
[34] = second compound 3.16 µM, first compound 1 µM
[35] = second compound 3.16 µM, first compound 3.16 µM
[36] = second compound 3.16 µM, first compound 10 µM
[37] = second compound 10 µM, first compound 0.0316 µM
[38] = second compound 10 µM, first compound 0.1 µM
[39] = second compound 10 µM, first compound 0.316 µM
[40] = second compound 10 µM, first compound 1 µM
[41] = second compound 10 µM, first compound 3.16 µM
[42] = second compound 10 µM, first compound 10 µM
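Note: spheroids exposed to compounds for seven days before readout.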
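Throughout, for viability, T/C: 100% = DMSO vehicle control wells.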

For O=c1[nH]cc(F)c(=O)[nH]1 + CN1CCN(c2cc(C(=O)Nc3cc4cc(-c5cnn(C)c5)ccc4cn3)ccn2)CC1, the IC50 [1] was over 10000 nM, the IC50 [2] was over 10000 nM and the IC50 [3] was under 31.6 nM. For the same compound, the IC50 [4] was under 31.6 nM, the IC50 [5] was under 31.6 nM and the IC50 [6] was under 31.6 nM. The viability, T/C [7] was 128%, the viability, T/C [8] was 120% and the viability, T/C [9] was 132%. For the same compound, the viability, T/C [10] was 125%, the viability, T/C [11] was 125% and the viability, T/C [12] was 96.5%. The viability, T/C [13] was 149%, the viability, T/C [14] was 119% and the viability, T/C [15] was 123%. It also gave a viability, T/C [16] of 139%, a viability, T/C [17] of 113% and a viability, T/C [18] of 96%. It also gave a viability, T/C [19] of 20.4%, a viability, T/C [20] of 25% and a viability, T/C [21] of 18.3%. For the same compound, the viability, T/C [22] was 18%, the viability, T/C [23] was 18.1% and the viability, T/C [24] was 21.4%. The viability, T/C [25] was 1.7%, the viability, T/C [26] was 1.4% and the viability, T/C [27] was 1.3%. The viability, T/C [28] was 1.91%, the viability, T/C [29] was 4.01% and the viability, T/C [30] was 5.93%. For the same compound, the viability, T/C [31] was 1.76%, the viability, T/C [32] was 3.81% and the viability, T/C [33] was 1.88%. The viability, T/C [34] was 2.14%, the viability, T/C [35] was 1.46% and the viability, T/C [36] was 5.59%. The viability, T/C [37] was 0.99%, the viability, T/C [38] was 0.93% and the viability, T/C [39] was 0.6%. For the same compound, the viability, T/C [40] was 1.01%, the viability, T/C [41] was 5.93% and the viability, T/C [42] was 4.87%.

For CCc1c2c(nc3ccc(O)cc13)-c1cc3c(c(=O)n1C2)COC(=O)[C@]3(O)CC, the viability, T/C (compound 0.00316 µM) was 54.7% and 48.2%, the viability, T/C (compound 0.01 µM) was 61.4% and 56.1% and the viability, T/C (compound 0.0316 µM) was 45% and 44.2%. For the same compound, the viability, T/C (compound 0.1 µM) was 29% and 22.6%, the viability, T/C (compound 0.316 µM) was 16.5% and 15.5% and the viability, T/C (compound 1 µM) was 4.57% and 6.27%. For the same compound, the IC50 (curve of compound) was 20.8 nM and 12.6 nM.

In the case of C=CC(=O)N1CCN(c2nc(=O)n(-c3c(C)ccnc3C(C)C)c3nc(-c4c(O)cccc4F)c(F)cc23)C(C)C1 (stereo not given) + CN1CCN(c2cc(C(=O)Nc3cc4cc(-c5cnn(C)c5)ccc4cn3)ccn2)CC1, the IC50 [1] is reported as over 10000 nM, the IC50 [2] is reported as over 10000 nM and the IC50 [3] is reported as under 31.6 nM. For the same compound, the IC50 [4] was under 31.6 nM, the IC50 [5] was under 31.6 nM and the IC50 [6] was under 31.6 nM. The viability, T/C [7] was 128%, the viability, T/C [8] was 130% and the viability, T/C [9] was 121%. For the same compound, the viability, T/C [10] was 138%, the viability, T/C [11] was 159% and the viability, T/C [12] was 128%. The viability, T/C [13] was 128%, the viability, T/C [14] was 122% and the viability, T/C [15] was 132%. It also gave a viability, T/C [16] of 160%, a viability, T/C [17] of 162% and a viability, T/C [18] of 121%. It also gave a viability, T/C [19] of 20.6%, a viability, T/C [20] of 21.9% and a viability, T/C [21] of 20.1%. For the same compound, the viability, T/C [22] was 24.2%, the viability, T/C [23] was 25.9% and the viability, T/C [24] was 18.4%. It also gave a viability, T/C [25] of 1.67%, a viability, T/C [26] of 1.68% and a viability, T/C [27] of 2.05%. The viability, T/C [28] was 2.47%, the viability, T/C [29] was 2.38% and the viability, T/C [30] was 1.47%. For the same compound, the viability, T/C [31] was 1.63%, the viability, T/C [32] was 3.15% and the viability, T/C [33] was 2.36%. It also gave a viability, T/C [34] of 2.16%, a viability, T/C [35] of 3.18% and a viability, T/C [36] of 4.16%. The viability, T/C [37] was 0.96%, the viability, T/C [38] was 1.09% and the viability, T/C [39] was 2.11%. It also gave a viability, T/C [40] of 1.48%, a viability, T/C [41] of 4.19% and a viability, T/C [42] of 1.94%.

With CC(C)CC(NC(=O)C(Cc1ccccc1)NC(=O)c1cnccn1)B(O)O (stereo not given) the viability, T/C (compound 0.000949 µM) was 96.3% and 107%, the viability, T/C (compound 0.003 µM) was 60.7% and 68.6% and the viability, T/C (compound 0.00949 µM) was 1.72% and 2.43%. For the same compound, the viability, T/C (compound 0.03 µM) was 2.65% and 0.78%, the viability, T/C (compound 0.0949 µM) was 0.47% and 0.54% and the viability, T/C (compound 0.3 µM) was 1.72% and 0.37%. For the same compound, the IC50 (curve of compound) was 3.7 nM and 4.15 nM.

With Cn1ncnc1[C@H]1c2n[nH]c(=O)c3cc(F)cc(c23)N[C@@H]1c1ccc(F)cc1 the viability, T/C (compound 0.000316 µM) was 111% and 95.5%, the viability, T/C (compound 0.001 µM) was 103% and 114% and the viability, T/C (compound 0.00316 µM) was 81.5% and 109%. For the same compound, the viability, T/C (compound 0.01 µM) was 83.8% and 101%, the viability, T/C (compound 0.0316 µM) was 95.8% and 103% and the viability, T/C (compound 0.1 µM) was 76.3% and 84.7%. It also gave an IC50 (curve of compound) of over 100 nM.
